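Values below derive from 48-hour exposures of cells grown in 96-well plates, with endpoints linearly interpolated between the two concentrations bracketing the appropriate inhibition level. GI50 = concentration required for 50% inhibition of growth.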 Activity calls are given as the source filed them. Cut-off read from the data, not from the text of the source: active = GI50 up to about 1.1 µM and inactive = higher.
Experiments:
Experiment in all cases: NCI anticancer screen, dose series, 48 h
CAKI-1 = test system: CAKI-1
CCRF-CEM = test system: CCRF-CEM
COLO 205 = test system: COLO 205
DLD-1 = test system: DLD-1
DMS-114 = test system: DMS-114
HCC 2998 = test system: HCC 2998
HCT-15 = test system: HCT-15
HOP-92 = test system: HOP-92
HT-29 = test system: HT-29
IGROV-1 = test system: IGROV-1
K562 = test system: K562
KM-20L2 = test system: KM-20L2
KM12 = test system: KM12
LXFL 529 = test system: LXFL 529
M14 = test system: M14
M19-MEL = test system: M19-MEL
MOLT-4 = test system: MOLT-4
Malme-3M = test system: Malme-3M
NCI-H23 = test system: NCI-H23
NCI-H522 = test system: NCI-H522
OVCAR-3 = test system: OVCAR-3
OVCAR-4 = test system: OVCAR-4
OVCAR-5 = test system: OVCAR-5
OVCAR-8 = test system: OVCAR-8
RXF 393 = test system: RXF 393
SF-295 = test system: SF-295
SK-MEL-28 = test system: SK-MEL-28
SK-MEL-2 = test system: SK-MEL-2
SK-MEL-5 = test system: SK-MEL-5
SK-OV-3 = test system: SK-OV-3
SN12C = test system: SN12C
SNB-19 = test system: SNB-19
SNB-78 = test system: SNB-78
SR = test system: SR
SW-620 = test system: SW-620
TK-10 = test system: TK-10
U-251 = test system: U-251
UACC-62 = test system: UACC-62
UO-31 = test system: UO-31
XF498 = test system: XF498
786-0 = test system: 786-0
A498 = test system: A498
A549 = test system: A549
ACHN = test system: ACHN
BT-549 = test system: BT-549
DU-145 = test system: DU-145
EKVX = test system: EKVX
HCT-116 = test system: HCT-116
HL-60 = test system: HL-60
HOP-62 = test system: HOP-62
Hs-578T = test system: Hs-578T
LOX IMVI = test system: LOX IMVI
MCF7 = test system: MCF7
MDA-MB-231 = test system: MDA-MB-231
MDA-MB-435 = test system: MDA-MB-435
MDA-N = test system: MDA-N
NCI-H226 = test system: NCI-H226
NCI-H460 = test system: NCI-H460
NCI/ADR-RES = test system: NCI/ADR-RES
PC-3 = test system: PC-3
RPMI-8226 = test system: RPMI-8226
SF-268 = test system: SF-268
SF-539 = test system: SF-539
SNB-75 = test system: SNB-75
T47D = test system: T47D
UACC-257 = test system: UACC-257

For `COc1cc(/C=C(\NC(=O)c2ccccc2)c2nc3cc([N+](=O)[O-])ccc3[nH]2)cc(OC)c1OC`, the GI50 (CAKI-1) was 68.5 µM (inactive), the GI50 (CCRF-CEM) was 35.9 µM (inactive) and the GI50 (COLO 205) was > 100 µM (inactive). The GI50 (DLD-1) was 57.3 µM (inactive), the GI50 (DMS-114) was 57.9 µM (inactive) and the GI50 (HCC 2998) was > 100 µM (inactive). The GI50 (HCT-15) was 40 µM, the GI50 (HOP-92) was 57 µM (inactive) and the GI50 (HT-29) was > 100 µM (inactive). The GI50 (IGROV-1) was > 100 µM (inactive), the GI50 (K562) was 34.3 µM (inactive) and the GI50 (KM-20L2) was 78.7 µM (inactive). The GI50 (KM12) was 84.5 µM (inactive), the GI50 (LXFL 529) was 35.4 µM (inactive) and the GI50 (M14) was > 100 µM (inactive). The GI50 (M19-MEL) was > 100 µM (inactive), the GI50 (MOLT-4) was 29 µM (inactive) and the GI50 (Malme-3M) was > 100 µM (inactive). The GI50 (NCI-H23) was > 100 µM (inactive), the GI50 (NCI-H522) was 30.2 µM (inactive) and the GI50 (OVCAR-3) was > 100 µM (inactive). For the same compound, the GI50 (OVCAR-4) was 38.5 µM (inactive), the GI50 (OVCAR-5) was > 100 µM (inactive) and the GI50 (OVCAR-8) was 96.4 µM (inactive). The GI50 (RXF 393) was > 100 µM (inactive), the GI50 (SF-295) was > 100 µM (inactive) and the GI50 (SK-MEL-28) was > 100 µM (inactive). For the same compound, the GI50 (SK-MEL-2) was > 100 µM (inactive), the GI50 (SK-MEL-5) was 96.6 µM (inactive) and the GI50 (SK-OV-3) was 78.3 µM (inactive). For the same compound, the GI50 (SN12C) was > 100 µM (inactive), the GI50 (SNB-19) was > 100 µM (inactive) and the GI50 (SNB-78) was > 100 µM (inactive). For the same compound, the GI50 (SR) was 42.2 µM (inactive), the GI50 (SW-620) was 76.7 µM (inactive) and the GI50 (TK-10) was > 100 µM (inactive). The GI50 (U-251) was > 100 µM (inactive), the GI50 (UACC-62) was > 100 µM (inactive) and the GI50 (UO-31) was 23.1 µM (inactive). The GI50 (XF498) was > 100 µM (inactive).
For `COC1=C2CC(C)CC(OC)C(OC(=O)CCCN)C(C)/C=C(\C)C(OC(N)=O)C(OC)/C=C\C=C(/C)C(=O)NC(=CC1=O)C2=O` (centres undefined), the GI50 (786-0) was 3.68 µM (inactive), the GI50 (A498) was 16.4 µM (inactive) and the GI50 (A549) was 25.5 µM (inactive). The GI50 (ACHN) was 5.4 µM (inactive), the GI50 (BT-549) was 4.29 µM (inactive) and the GI50 (CAKI-1) was 10.7 µM (inactive). For the same compound, the GI50 (CCRF-CEM) was 0.766 µM (active), the GI50 (COLO 205) was 0.431 µM (active) and the GI50 (DU-145) was 9.23 µM (inactive). For the same compound, the GI50 (EKVX) was 13.2 µM (inactive), the GI50 (HCC 2998) was 10.1 µM (inactive) and the GI50 (HCT-116) was 3.98 µM (inactive). The GI50 (HCT-15) was 4.97 µM, the GI50 (HL-60) was 0.289 µM (active) and the GI50 (HOP-62) was 17.3 µM (inactive). For the same compound, the GI50 (HOP-92) was 4.23 µM (inactive), the GI50 (HT-29) was 2.43 µM (inactive) and the GI50 (Hs-578T) was 11.6 µM (inactive). For the same compound, the GI50 (IGROV-1) was 7.08 µM (inactive), the GI50 (K562) was 0.54 µM (active) and the GI50 (KM12) was 10.3 µM (inactive). The GI50 (LOX IMVI) was 2.64 µM (inactive), the GI50 (M14) was 4.56 µM (inactive) and the GI50 (MCF7) was 0.865 µM (active). For the same compound, the GI50 (MDA-MB-231) was 9.16 µM (inactive), the GI50 (MDA-MB-435) was 2.97 µM (inactive) and the GI50 (MDA-N) was 4.33 µM (inactive). The GI50 (MOLT-4) was 0.815 µM (active), the GI50 (Malme-3M) was 2.29 µM (inactive) and the GI50 (NCI-H226) was 16.3 µM (inactive). The GI50 (NCI-H23) was 3.65 µM (inactive), the GI50 (NCI-H460) was 15.5 µM (inactive) and the GI50 (NCI-H522) was 0.431 µM (active). The GI50 (NCI/ADR-RES) was 19.9 µM (inactive), the GI50 (OVCAR-3) was 3.2 µM (inactive) and the GI50 (OVCAR-4) was 7 µM (inactive). The GI50 (OVCAR-5) was 10.2 µM (inactive), the GI50 (OVCAR-8) was 6.97 µM (inactive) and the GI50 (PC-3) was 9.2 µM (inactive). For the same compound, the GI50 (RPMI-8226) was 2.29 µM (inactive), the GI50 (RXF 393) was 3.12 µM (inactive) and the GI50 (SF-268) was 10.3 µM (inactive). The GI50 (SF-295) was 16.9 µM (inactive), the GI50 (SF-539) was 6.71 µM (inactive) and the GI50 (SK-MEL-28) was 8.61 µM (inactive). The GI50 (SK-MEL-2) was 12.1 µM (inactive), the GI50 (SK-MEL-5) was 9.14 µM (inactive) and the GI50 (SK-OV-3) was 15.5 µM (inactive). The GI50 (SN12C) was 5.5 µM (inactive), the GI50 (SNB-19) was 15.4 µM (inactive) and the GI50 (SNB-75) was 18.7 µM (inactive). The GI50 (SR) was 3.02 µM (inactive), the GI50 (SW-620) was 0.873 µM (active) and the GI50 (T47D) was 1.09 µM (active). The GI50 (TK-10) was 7.16 µM (inactive), the GI50 (U-251) was 18.5 µM (inactive) and the GI50 (UACC-257) was 5.64 µM (inactive). For the same compound, the GI50 (UACC-62) was 6 µM (inactive) and the GI50 (UO-31) was 10.5 µM (inactive).
In the case of `CN1CCN(CN2C(=O)C3C4C=CC(C3C2=O)C2C3C(=O)N(CN5CCN(C)CC5)C(=O)C3C42)CC1` (centres undefined), the GI50 (786-0) is reported as 18.4 µM (inactive), the GI50 (A498) is reported as > 100 µM (inactive) and the GI50 (A549) is reported as 18.6 µM (inactive). The GI50 (ACHN) was 19.1 µM (inactive), the GI50 (CCRF-CEM) was 22 µM (inactive) and the GI50 (COLO 205) was 20.2 µM (inactive). For the same compound, the GI50 (DLD-1) was 24.1 µM (inactive), the GI50 (DMS-114) was 19.6 µM (inactive) and the GI50 (HCC 2998) was 27.7 µM (inactive). For the same compound, the GI50 (HCT-116) was 13 µM (inactive), the GI50 (HCT-15) was 14.6 µM and the GI50 (HT-29) was 45.9 µM (inactive). The GI50 (IGROV-1) was 42.6 µM (inactive), the GI50 (K562) was 28.2 µM (inactive) and the GI50 (KM-20L2) was 25.5 µM (inactive). For the same compound, the GI50 (KM12) was 32.7 µM (inactive), the GI50 (LOX IMVI) was 17.4 µM (inactive) and the GI50 (LXFL 529) was 23.8 µM (inactive). For the same compound, the GI50 (M14) was 21.3 µM (inactive), the GI50 (MOLT-4) was 29.9 µM (inactive) and the GI50 (NCI-H23) was 28.7 µM (inactive). The GI50 (NCI-H460) was 13.5 µM (inactive), the GI50 (NCI-H522) was 12.5 µM (inactive) and the GI50 (OVCAR-3) was 29.1 µM (inactive). For the same compound, the GI50 (OVCAR-4) was 24.5 µM (inactive), the GI50 (OVCAR-5) was 22.1 µM (inactive) and the GI50 (OVCAR-8) was 24.7 µM (inactive). For the same compound, the GI50 (RPMI-8226) was 34.2 µM (inactive), the GI50 (RXF 393) was 20.7 µM (inactive) and the GI50 (SF-268) was 17.2 µM (inactive). For the same compound, the GI50 (SF-539) was 24.7 µM (inactive), the GI50 (SK-MEL-28) was 19.3 µM (inactive) and the GI50 (SK-MEL-5) was 30.4 µM (inactive). The GI50 (SN12C) was 22.5 µM (inactive), the GI50 (SNB-75) was 27.7 µM (inactive) and the GI50 (SW-620) was 16.4 µM (inactive). For the same compound, the GI50 (TK-10) was 31.1 µM (inactive), the GI50 (U-251) was 18.2 µM (inactive) and the GI50 (UACC-62) was 24.1 µM (inactive). The GI50 (UO-31) was 32.1 µM (inactive).

Source: ChEMBL document CHEMBL1201862, “PubChem BioAssay data set” (2004)
